“Also recorded” adds a separate entry of the source.
Assays:
splenic pDCs = assay: In vitro stimulation of sorted splenic pDCs, IFN-λ ELISA; assay type: cell-based, mouse; settings: 5×10^5/ml, IL-3 and GM-CSF, 18 h
Description: (§1) DC subsets were isolated from pooled mouse spleens as described (Vremec et al., 2007). Briefly, spleens were chopped, digested with collagenase (Worthington Biochemical) and DNase (Roche) at room temperature, and treated with EDTA. Low-density cells were enriched by density centrifugation; non-DC lineage cells were coated with mAbs (anti-CD3, KT3-1.1; anti-Thy-1, T24/31.7; anti Gr-1, 1A8; anti-CD19, ID3; anti-erythrocytes, TER119 and anti-NK cells, DX5) and depleted using anti-rat Ig magnetic beads (Qiagen). Dead cells were excluded by propidium iodide staining. cDC populations were sorted based on the expression of CD11c, CD45RA, CD4, CD8a and CD172a and pDCs were purified based on CD11c, CD45RA, and CD172a (all BD Biosciences) expression. Cell sorting was performed on a FACS Aria instrument (BD Biosciences).
(§2) Cells were stimulated in vitro with single TLR agonists or combinations thereof containing 10 μg/ml Pam3Cys (InvivoGen), 100 μg/ml poly IC (Axxora), 10 μg/ml LPS (E. coli; Sigma-Aldrich or Axxora), 10 μg/ml R848 (Axxora), 1 μM CpG-1668 or CpG-2216 (TIB-Molbiol), 1 μg/ml profilin of toxoplasma (Axxora). […] IFN-λ in supernatants was analyzed by ELISA and IL-12p70 was determined by FlowCytomix bead assay (Bender Medsystems) according to manufacturer's protocol.

CD8-cDCs = assay: In vitro stimulation of sorted splenic CD8- cDCs, IFN-λ ELISA; assay type: cell-based, mouse; settings: 5×10^5/ml, IL-3 and GM-CSF, 18 h
Description: as §1, §2

[1] = test system: total non parenchymal liver cells; assay: In vitro stimulation of total non parenchymal liver cells, IFN-λ and IL-12p70; assay type: cell-based, mouse; settings: liver cells from WT mice, 2.5×10^6/ml, IL-3+IL-4+IFN-γ+GM-CSF, 18 h
Experimental: FIGS. 3A and B depict that FL is involved in the production of IFN-λ in vivo. (A) Isolated total non parenchymal liver cells 2.5×10^6/ml were stimulated in the presence of IL-3+IL-4+IFN-γ+GM-CSF with the stimuli as indicated. After 18 h supernatants were analyzed for IFN-λ and IL-12p70. Representative results of 3 experiments are shown. Data represent mean+/−SD of duplicate samples. (B) WT and FL-KO mice were injected i.v. with 100 μg poly IC. After 3-4 h sera were analyzed for IFN-λ and IFN-α. Circles indicate the results of individual mice and columns represent the mean thereof.
as §2, with “(Axxora). The recombinant cytokines mouse-IL-3, mouse-IL-4, rat-IFN-γ (PeproTech) and mouse-GM-CSF (Tebu-Bio) (10 ng/ml each) were added as indicated.” for “(Axxora).”, “protocol. […]” for “protocol.”

mice [2] = assay: In vivo challenge (i.v.), serum IFN-λ and IFN-α by ELISA; set-up: species or system mouse; settings: 100 μg i.v.
Experimental: Mice were injected i.v. into the lateral tail vein with 100 μg poly IC (Axxora) and serum was collected 3-4 h after challenge. Sera were pre-diluted 1/5, […] was analyzed by ELISA as described (Hochrein et al., 2004). IFN-λ was determined by an IFN-λ3 (IL-28B) ELISA (R&D Systems).

PBMC = assay: Stimulation of human PBMC, IFN-λ1 and IFN-λ2 ELISA; assay type: cell-based; settings: PBMCs and fractions of DC-enriched PBMCs, IL-3, GM-CSF and IFN-γ, 18-24 h
Experimental: (§3) PBMC were prepared from peripheral blood of non-atopic blood donors by density gradient centrifugation and BDCA3+ DC were purified from PBMC using the BDCA3/CD141+Dendritic Cell Isolation Kit (Miltenyi Biotech) on an AutoMACS™ separator. Subsequently, BDCA1+ DC were purified from the BDCA3-depleted PBMC using the BDCA1/CD1c+ Dendritic Cell Isolation Kit (Miltenyi Biotech). […] After stimulation for 18-24 h the supernatants were analyzed for IFN-λ1 and IFN-λ2 by ELISA according to manufacturer's recommendations (Tebu-bio).

BDCA3+ DC = assay: Stimulation of human BDCA3+ DC, IFN-λ1 and IFN-λ2 ELISA; assay type: cell-based; settings: BDCA3 positive cells vs BDCA1 cells, all donors, 100 μg/ml, 18-24 h
Experimental: as §3

mice [3] = assay: In vivo challenge (i.v.), serum IFN-λ and IFN-α by ELISA; set-up: species or system mouse; settings: 100 μg i.v.; remark: listed apart in the source

“Polyinosinic:polycytidylic acid [poly IC]” was tested, and the IFN-λ production (splenic pDCs) was “largely unable to participate in IFN-λ production”, the IFN-λ production (CD8-cDCs) was “largely unable to participate in IFN-λ production” and the IFN-λ production [1] was “produced IFN-λ”. The “serum IFN-λ, dependence on hematopoietic cells, FL and IRF8” value (mice [2]; BM reconstituted, IL-15R-KO, RAG1-KO, FL-KO, IRF8-KO vs WT mice (FIG. 16), 3-4 h) was “depends on hematopoietic cells, FL and IRF8”, the “Serum levels of IFN-λ” value (mice [2]; FL-KO mice, 3-4 h) was “almost abrogated” and the “serum IFN-λ” value (mice [2]; IRF7-KO mice, 3-4 h) was “largely reduced”. The “serum IFN-λ” value (mice [2]; TLR3-KO mice, 3-4 h) was “abrogated IFN-λ production”, the “Serum levels of IFN-λ” value (mice [2]; WT mice, sera after 3-4 h) was “easily detectable; also recorded: Large amounts” and the “serum IFN-λ, dependence on IRF3 and IRF7” value (mice [2]; mice of indicated genotype (FIG. 15), 3-4 h) was “depends on IRF3 and IRF7”. For the same substance, the “IFN-λ1 (IL-29) production” value (PBMC) was “induced”, the “IFN-λ2 (IL-28A) production” value (PBMC) was “induced” and the IFN-λ1 production (BDCA3+ DC) was “major producers”. For the same substance, the IFN-λ2 production (BDCA3+ DC) was “major producers”, the “serum IFN-α” value (mice [3]; Cardif-KO mice, 3-4 h) was “complete abrogation of serum IFN-α” and the “serum IFN-λ” value (mice [3]; Cardif-KO mice, 3-4 h) was “no effects on IFN-λ production”. For the same substance, the “Serum levels of IFN-α” value (mice [3]; FL-KO mice, 3-4 h) was “remained easily detectable”, the “systemic production of IFN-α” value (mice [3]; IFN-AR-KO vs WT mice, 3-4 h) was “largely dependent on the presence of IFN-AR” and the “systemic production of IFN-λ” value (mice [3]; IFN-AR-KO vs WT mice, 3-4 h) was “largely dependent on the presence of IFN-AR”. The “serum IFN-α” value (mice [3]; IRF7-KO mice, 3-4 h) was “almost abrogated”, the “serum IFN-α” value (mice [3]; MyD88-KO mice, 3-4 h) was “Large amounts” and the “serum IFN-λ” value (mice [3]; MyD88-KO mice, 3-4 h) was “Large amounts”. The “serum IFN-α” value (mice [3]; TLR3-KO mice, 3-4 h) was “no effect on the production of IFN-α” and the “Serum levels of IFN-α” value (mice [3]; WT mice, sera after 3-4 h) was “easily detectable; also recorded: Large amounts”.
